From patent US20060069132A1, “Azolecarboxamide herbicides” (priority 2004, published 2006)

Assays:
[1] = test system: morningglory; test: Test B pre-/postemergence herbicide test; format: in vivo, Ipomoea coccinea; settings: for Plant response rating (0 to 100 scale), Morningglory: 0 is no effect, preemergence
Summary of the method: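 Seeds were planted and treated preemergence with compounds formulated in a non-phytotoxic solvent mixture containing surfactant, while plants at the 1- to 4-leaf stage (2 to 18 cm) received postemergence sprays. Flooded paddy plants were grown to the 2-leaf stage. After 13 to 15 days in a greenhouse, injury was visually rated 0–100 against untreated controls.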

[2] = test system: barnyardgrass; test: Test B flooded paddy test; format: in vivo, Echinochloa crus-galli; settings: 1000 g ai/ha, scale 0 to 100 (0 no effect, 100 complete control)
Summary of the method: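 Postemergence plants were sprayed with formulated test chemicals at 2 to 18 cm height (1- to 4-leaf stage); paddy species were grown to the 2-leaf stage. After 13 to 15 days in a greenhouse, injury was rated visually against untreated controls on a 0–100 scale (0 = no effect, 100 = complete control).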

[3] = test system: bermudagrass; test: Test C pre-/postemergence herbicide test; format: in vivo, Cynodon dactylon
Summary of the method: (§1)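 Seeds were planted and sprayed preemergence with test chemicals in a non-phytotoxic solvent mixture containing surfactant; postemergence treatments went onto plants 2 to 18 cm tall (1- to 4-leaf stage). After 12 to 14 days in a greenhouse, injury was rated visually against untreated controls on a 0–100 scale.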

[4] = test system: smallflower umbrella sedge; test: Test C flooded paddy test; format: in vivo, Cyperus difformis
[5] = test system: morningglory; test: Test C pre-/postemergence herbicide test; format: in vivo, Ipomoea coccinea; parameters: key to Plant response rating, Morningglory: 0 = no effect, 100 = complete control
Summary of the method: as §1

[6] = 125 g ai/ha, 100 is complete control
[7] = 125 g ai/ha, visual rating, scale 0 (no effect) to 100 (complete control), postemergence
[8] = Postemergence, 500 g ai/ha, scale 0 (no effect) to 100 (complete control)
[9] = 62 g ai/ha, preemergence, scale 0 to 100, 0 no effect, 100 complete control
[10] = 250 g ai/ha, scale 0-100, preemergence
[11] = 500 g ai/ha, scale 0 to 100 (0 no effect, 100 complete control), visual, 12 to 14 days, preemergence
[12] = 125 g ai/ha, scale 0 to 100 (0 no effect, 100 complete control)
[13] = 250 g ai/ha, scale of 0 to 100, 0 is no effect, 100 is complete control
[14] = 500 g ai/ha, visual rating after 12 to 14 days, scale 0 to 100 (0 no effect, 100 complete control)
[15] = 62 g ai/ha, preemergence, scale 0 to 100
[16] = 125 g ai/ha, scale 0 (no effect) to 100 (complete control), visual, 12 to 14 days, preemergence
[17] = Preemergence, 500 g ai/ha, scale 0 to 100, 0 no effect, 100 complete control

SMILES	Plant response rating (0 to 100 scale), Morningglory [1, 6]	Morningglory plant response rating [1, 7]	Morningglory plant response rating [1, 8]	Barnyardgrass plant response rating [2]	Plant response rating, Bermudagrass [3, 9]	Plant response rating (0 = no effect, 100 = complete control), Bermudagrass ([3]; 125 g ai/ha, preemergence)	Plant response rating, Bermudagrass [3, 10]	Plant response rating, Bermudagrass [3, 11]	Sedge, Umbrella plant response rating ([4]; 62 g ai/ha, scale 0 to 100)	Sedge, Umbrella plant response rating [4, 12]	Sedge, Umbrella plant response rating [4, 13]	Plant response rating, Sedge, Umbrella [4, 14]	Plant response rating, Morningglory [5, 15]	Plant response rating (0 = no effect, 100 = complete control), Morningglory ([5]; 125 g ai/ha, preemergence)	Plant response rating, Morningglory [5, 11]	Plant response rating, Morningglory [5, 10]	further results
CCNC(=O)c1ccc(F)c(N(C(C)=O)C(=O)c2cc(C(C)(C)C)nn2CC)c1 [Compound 399]	10	20	40	90	100	100	100	100	65	70	85	85	15	25	75		
CCNC(=O)c1ccc(F)c(NC(=O)C2CN(C(C)(C)C)N=C2CC)c1 (stereo not shown) [Compound 336, 1-(1,1-dimethylethyl)-3-ethyl-N-[5-[(ethylamino)carbonyl]-2-fluorophenyl]-4,5-dihydro-1H-pyrazole-4-carboxamide]	20																pest or weed control at 125 g/ha ([1]; Ipomoea, post-emergence, 336 h, 125 g ai/ha, visual rating, scale 0 (no effect) to 100 (complete control), read-out: Morningglory plant response rating): 40%; pest or weed control at 500 g/ha ([1]; Ipomoea, post-emergence, 336 h, postemergence, 500 g ai/ha, scale 0 to 100, 0 is no effect, 100 is complete control, read-out: Morningglory plant response rating): 70%; pest or weed control at 500 g/ha ([1]; Ipomoea, pre-emergence, 336 h, 500 g ai/ha, visual rating, 0 = no effect, 100 = complete control, read-out: Plant response rating, Morningglory): 70%; pest or weed control at 1000 g/ha ([2]; Echinochloa crus-galli, 336 h, read-out: Barnyardgrass plant response rating): 90%; pest or weed control at 62 g/ha ([3]; Cynodon dactylon, pre-emergence, 312 h, 62 g ai/ha, preemergence, scale 0 to 100, 0 no effect, 100 complete control, read-out: Plant response rating, Bermudagrass): 95%; pest or weed control at 125 g/ha ([3]; Cynodon dactylon, pre-emergence, 312 h, 125 g ai/ha, scale 0 (no effect) to 100 (complete control), visual, 12 to 14 days, read-out: Plant response rating, Bermudagrass): 100%; pest or weed control at 250 g/ha ([3]; Cynodon dactylon, pre-emergence, 312 h, 250 g ai/ha, scale 0-100, read-out: Plant response rating, Bermudagrass): 100%; pest or weed control at 500 g/ha ([3]; Cynodon dactylon, pre-emergence, 312 h, 500 g ai/ha, scale 0 to 100 (0 no effect, 100 complete control), visual, 12 to 14 days, read-out: Plant response rating, Bermudagrass): 100%; pest or weed control at 62 g/ha ([4]; Cyperus difformis, 62 g ai/ha, scale 0 to 100, read-out: Sedge, Umbrella plant response rating): 25%; pest or weed control at 125 g/ha ([4]; Cyperus difformis, 125 g ai/ha, scale 0 to 100 (0 no effect, 100 complete control), read-out: Sedge, Umbrella plant response rating): 80%; pest or weed control at 250 g/ha ([4]; Cyperus difformis, 250 g ai/ha, scale of 0 to 100, 0 is no effect, 100 is complete control, read-out: Sedge, Umbrella plant response rating): 85%; pest or weed control at 500 g/ha ([4]; Cyperus difformis, 500 g ai/ha, visual rating after 12 to 14 days, scale 0 to 100 (0 no effect, 100 complete control), read-out: Plant response rating, Sedge, Umbrella): 90%; pest or weed control at 62 g/ha ([5]; Ipomoea, pre-emergence, 62 g ai/ha, preemergence, scale 0 to 100, read-out: Plant response rating, Morningglory): 5%; pest or weed control at 125 g/ha ([5]; Ipomoea, pre-emergence, 125 g ai/ha, scale 0 (no effect) to 100 (complete control), visual, 12 to 14 days, read-out: Plant response rating, Morningglory): 70%; pest or weed control at 250 g/ha ([5]; Ipomoea, pre-emergence, 250 g ai/ha, scale 0-100, read-out: Plant response rating, Morningglory): 100%; pest or weed control at 500 g/ha ([5]; Ipomoea, pre-emergence, 500 g ai/ha, scale 0 to 100 (0 no effect, 100 complete control), visual, 12 to 14 days, read-out: Plant response rating, Morningglory): 100%
CCNC(=O)c1ccnc(NC(=O)c2cc(C(C)(C)C)nn2CC)c1 [Compound 152]					85					80	85	85	20				Morningglory plant response rating ([1]; Postemergence, 250 g ai/ha, scale 0 (no effect) to 100 (complete control)): 60; Morningglory plant response rating ([1]; postemergence, 62 g ai/ha, scale 0 to 100): 50; Barnyardgrass plant response rating ([2]; visual rating, 13 to 15 days): 80; Plant response rating, Bermudagrass [3, 16]: 90; Plant response rating, Bermudagrass ([3]; 250 g ai/ha, scale 0 to 100 (0 no effect, 100 complete control), visual, 12 to 14 days, preemergence): 100; Bermudagrass plant response rating [3, 17]: 100; Sedge, Umbrella plant response rating ([4]; 62 g ai/ha, scale 0 to 100 (0 no effect, 100 complete control)): 80; Plant response rating, Morningglory [5, 16]: 80; Morningglory plant response rating [5, 17]: 100
CCNC(=O)c1cccc(NC(=O)c2nn(C(C)(C)CC)nc2CC)c1 [Compound 376]	10	30	60	70	80	90	100	100	80	85	85	85	0	0	5	5	
Cc1nn(C(C)(C)C)nc1C(=O)Nc1cccc(C(=O)N(C)C)c1 [Compound 391]	90	30	70	90	95	95	95	95	80	80	85	95	100	100	100	100	
CCc1nn(C(C)(C)CC)nc1C(=O)Nc1cccc(C(=O)N(C)C)c1 [Compound 372]	10	20	60	90	75	98	98	100	80	85	85	85	0	5	80	40	
